Test results: publication PMC4958397, “Synthesis, antibacterial and antiproliferative potential of some new 1-pyridinecarbonyl-4-substituted thiosemicarbazide derivatives” (Medicinal Chemistry Research, 2016)
Converted amounts (≈) assume the structure as drawn.

Tests used:
[1] = tested on: Staphylococcus aureus ATCC 25923; experiment: Disk diffusion, zone of bacterial growth inhibition; type: cell-based; conditions: for zone of inhibition at 100 µg/disc: Staphylococcus aureus, ATCC25923, 100 μg of compound, read-out: Zone of bacterial growth inhibition, S.a
Description: (§1) Panel reference strains of bacteria from the American Type Culture Collection or Polish Collection of Microorganisms, including aerobic Gram-positive bacteria: Staphylococcus aureus ATCC 25923 and Staphylococcus epidermidis ATCC 12228, and aerobic Gram-negative bacteria: Escherichia coli ATCC 25922 and Pseudomonas aeruginosa ATCC 9027, as well as microaerobic Gram-positive bacteria: Lactobacillus spp., Lactobacillus acidophilus PCM 2105, Streptococcus mutans PCM 2502 and Streptococcus sanguinis PCM 2335, were used. Microbial suspensions with an optical density of 0.5 McFarland standard at 1.5 × 10^8 CFU/mL (CFU: colony forming unit) were prepared in sterile 0.9 % NaCl. Mueller–Hinton (M–H) broth and M–H agar (Oxoid Ltd., England) for aerobic strains, and MRS Broth Lactobacillus, MRS Agar Lactobacillus (BioMaxima S.A., Poland), BHI Broth and BHI agar (BioMaxima S.A., Poland) for microaerobic strains were used in the microbial tests.
(§2) The preliminary antibacterial activity of the carbazide derivatives against human pathogenic Gram-positive, Gram-negative aerobic and microaerobic bacteria was evaluated by measuring the zones of inhibition in the disk diffusion method (Murray et al., [1995]). Each compound (100 µg) was placed on Petri plates with agar medium (previously inoculated with 0.5 McFarland standards with the tested bacterial strains). After 18 h of incubation at 37 °C (for aerobic strains) or 40 h at 35 °C (for microaerobic strains), zones of microbial growth produced around the tested substances were measured and recorded as the diameters of inhibition.

Lactobacillus spp. = experiment: as above; type: cell-based; conditions: 100 μg of compound; for zone of inhibition at 100 µg/disc: Lactobacillus, read-out: Zone of bacterial growth inhibition, L.spp.
Description: as §1, §2

[2] = tested on: Streptococcus mutans PCM 2502; experiment: as above; type: cell-based; conditions: for zone of inhibition at 100 µg/disc: Streptococcus mutans, PCM2502, 100 μg of compound, read-out: Zone of bacterial growth inhibition, S.m
Description: as §1, §2

[3] = tested on: Escherichia coli ATCC 25922; experiment: as above; type: cell-based; conditions: for zone of inhibition at 100 µg/disc: Escherichia coli, ATCC25922, 100 μg of compound, read-out: Zone of bacterial growth inhibition, E.c
Description: as §1, §2

[4] = tested on: Pseudomonas aeruginosa ATCC 9027; experiment: as above; type: cell-based; conditions: for zone of inhibition at 100 µg/disc: Pseudomonas aeruginosa, ATCC9027, 100 μg of compound, read-out: Zone of bacterial growth inhibition, P.a
Description: as §1, §2

[5] = tested on: Staphylococcus epidermidis ATCC 12228; experiment: as above; type: cell-based; conditions: for zone of inhibition at 100 µg/disc: Staphylococcus epidermidis, ATCC12228, 100 μg of compound, read-out: Zone of bacterial growth inhibition, S.e
Description: as §1, §2

[6] = tested on: Lactobacillus acidophilus PCM 210; experiment: as above; type: cell-based; conditions: for zone of inhibition at 100 µg/disc: Lactobacillus acidophilus, PCM210, 100 μg of compound, read-out: Zone of bacterial growth inhibition, L.a
Description: as §1, §2

[7] = tested on: Streptococcus sanguinis PCM 2335; experiment: as above; type: cell-based; conditions: for zone of inhibition at 100 µg/disc: Streptococcus sanguinis, PCM2335, 100 μg of compound, read-out: Zone of bacterial growth inhibition, S.s
Description: as §1, §2

[8] = tested on: aerobic Gram-positive bacteria; experiment: Broth microdilution MIC, summary in text; type: cell-based; conditions: range over compounds and strains; read-out: MIC against aerobic Gram-positive bacteria
Description: as §1
(§3) A broth microdilution method was used to evaluate the minimum inhibition concentration (MIC) according to the CLSI document (CLSI performance standards for antimicrobial susceptibility testing, 2008, Eighteenth International Supplement, CLSI document M7-MIC, Clinical Laboratory Standards Institute, Wayne) with some modifications. […] A serial doubling dilution of the compounds was prepared in 96-well plates (200 μL per well). A suitable medium (M-H Broth, MRS Broth Lactobacillus, BHI Broth) was used as a diluent. The final concentrations of derivatives were 1000–0.015 μg/mL. Finally, 2 μL of inoculum of the tested bacterial strain (1.5 × 10^8 CFU/mL) was added to each well. The tests were performed either at 36 °C for 18 h (aerobic strains) or at 40 h (microaerobic strains). After incubation, the panel was digitally analyzed at 600 nm using the microplate reader Bio Tech Synergy (USA) with a dedicated software system. The growth intensity in each well was compared with the negative and positive controls.

[9] = tested on: Lactobacillus acidophilus PCM 210; experiment: Broth microdilution MIC; type: cell-based; conditions: for MIC: Lactobacillus acidophilus, PCM210, NA means inactive, read-out: Minimum inhibitory concentration (MIC), L. acidophilus
[10] = tested on: Staphylococcus aureus ATCC 25923; experiment: Broth microdilution MIC; type: cell-based; conditions: for MIC: Staphylococcus aureus, ATCC25923, NA means inactive, read-out: Minimum inhibitory concentration (MIC), S. aureus
Description: as §1, §3

[11] = tested on: Streptococcus mutans PCM 2502; experiment: Broth microdilution MIC; type: cell-based; conditions: for MIC: Streptococcus mutans, PCM2502, NA means inactive, read-out: Minimum inhibitory concentration (MIC), S. mutans
Description: as §1, §3

[12] = tested on: Escherichia coli ATCC 25922; experiment: Broth microdilution MIC; type: cell-based; conditions: NA means inactive; for MIC: Escherichia coli, ATCC25922, broth microdilution, read-out: Minimum inhibitory concentration (MIC), E. coli; for Minimum inhibitory concentration (MIC), E. coli: broth microdilution
Description: as §1, §3

[13] = tested on: Pseudomonas aeruginosa ATCC 9027; experiment: Broth microdilution MIC; type: cell-based; conditions: for MIC: Pseudomonas aeruginosa, ATCC9027, NA means inactive, read-out: Minimum inhibitory concentration (MIC), P. aeruginosa
Description: as §1, §3

[14] = tested on: Staphylococcus epidermidis ATCC 12228; experiment: Broth microdilution MIC; type: cell-based; conditions: for MIC: Staphylococcus epidermidis, ATCC12228, NA means inactive, read-out: Minimum inhibitory concentration (MIC), S. epidermidis
Description: as §1, §3

[15] = tested on: Streptococcus sanguinis PCM 2335; experiment: Broth microdilution MIC; type: cell-based; conditions: for MIC: Streptococcus sanguinis, PCM2335, NA means inactive, read-out: Minimum inhibitory concentration (MIC), S. sanguinis
Description: as §1, §3

[16] = tested on: pathogenic microaerobic bacteria (causing dental caries); experiment: Broth microdilution MIC, summary in text; type: cell-based; conditions: range over compounds and strains; read-out: MIC against pathogenic microaerobic bacteria
Description: as §1, §3

tested bacterial strains = experiment: Disk diffusion, summary over all tested strains; type: cell-based; conditions: 100 μg; range over strains
Description: as §1, with “Mueller–Hinton (M–H) broth and M–H agar (Oxoid Ltd., England) for aerobic strains, and MRS Broth Lactobacillus, MRS Agar Lactobacillus (BioMaxima S.A., Poland), BHI Broth and BHI agar (BioMaxima S.A., Poland) for microaerobic strains were used in the microbial tests.” left out
The preliminary antibacterial activity of the carbazide derivatives against human pathogenic Gram-positive, Gram-negative aerobic and microaerobic bacteria was evaluated by measuring the zones of inhibition in the disk diffusion method (Murray et al., [1995]). […] After 18 h of incubation at 37 °C (for aerobic strains) or 40 h at 35 °C (for microaerobic strains), zones of microbial growth produced around the tested substances were measured and recorded as the diameters of inhibition.

Row | MIC [8] | MIC [9] | MIC [10] | MIC [11] | MIC [13] | MIC [14] | MIC [15] | melting point | Compound | zone of inhibition at 100 µg/disc [1] | zone of inhibition at 100 µg/disc (Lactobacillus spp.) | zone of inhibition at 100 µg/disc [2] | zone of inhibition at 100 µg/disc [3] | zone of inhibition at 100 µg/disc [4] | zone of inhibition at 100 µg/disc [5] | zone of inhibition at 100 µg/disc [6] | zone of inhibition at 100 µg/disc [7] | other results
1 | 15.6 to 500 µg/mL | 125 µg/mL (≈ 431 µM) | 31.2 µg/mL | 250 µg/mL | 500 µg/mL | 15.6 µg/mL | 500 µg/mL | 182 to 184 °C | O=C(NNC(=S)Nc1ccccc1F)c1ccccn1 [Compound 1, 4-(2-Fluorophenyl)-1-(pyridin-2-yl)carbonylthiosemicarbazide] | 18 mm | 24 mm | 10 mm | 22 mm | 12 mm | 26 mm | 12 mm | 10 mm | MIC [16]: 7.81 to 500 µg/mL; MIC [12]: 62 to 125 µg/mL; Minimum inhibitory concentration (MIC), E. coli [12]: 62.5 µg/mL
2 | 15.6 to 500 µg/mL | 500 µg/mL (≈ 1570 µM) | 250 µg/mL | 31.2 µg/mL | > 1000 µg/mL | 125 µg/mL | 31.2 µg/mL | 184 to 186 °C | CSc1ccc(NC(=S)NNC(=O)c2ccccn2)cc1 [Compound 5, 4-(4-Methylthiophenyl)-1-(pyridin-2-yl)carbonylthiosemicarbazide] | 10 mm | 11 mm | 0 mm | 11 mm | 0 mm | 10 mm | 19 mm | 15 mm | MIC [16]: 7.81 to 500 µg/mL
3 |  |  |  |  |  |  |  | 202 to 204 °C | O=C(NNC(=S)Nc1ccccc1F)c1ccncc1 [Compound 9, 4-(2-Fluorophenyl)-1-(pyridin-4-yl)carbonylthiosemicarbazide] | 0 mm | 0 mm | 0 mm | 0 mm | 0 mm | 0 mm | 0 mm | 0 mm | 
4 |  |  |  |  |  |  |  | 196 to 198 °C | O=C(NNC(=S)NCCN1CCOCC1)c1ccccn1 [Compound 3, 4-(2-Morpholinoethyl)-1-(pyridin-2-yl)carbonylthiosemicarbazide] | 0 mm | 0 mm | 0 mm | 0 mm | 0 mm | 7 mm | 0 mm | 0 mm | 

Further lines, the compound ahead of its results:

Row | Compound | MIC [8] | MIC [9] | MIC [10] | MIC [11] | MIC [13] | MIC [14] | MIC [15] | melting point | zone of inhibition at 100 µg/disc [1] | zone of inhibition at 100 µg/disc (Lactobacillus spp.) | zone of inhibition at 100 µg/disc [2] | zone of inhibition at 100 µg/disc [3] | zone of inhibition at 100 µg/disc [4] | zone of inhibition at 100 µg/disc [5] | zone of inhibition at 100 µg/disc [6] | zone of inhibition at 100 µg/disc [7] | other results
5 | O=C(NNC(=S)Nc1ccc(Cl)cc1Cl)c1ccncc1 [Compound 10, 4-(2,4-Dichlorophenyl)-1-(pyridin-4-yl)carbonylthiosemicarbazide] | 15.6 to 500 µg/mL | 1000 µg/mL (≈ 2930 µM) | 125 µg/mL | 250 µg/mL | 1000 µg/mL | 250 µg/mL | 1000 µg/mL |  | 16 mm | 0 mm | 28 mm | 7 mm | 0 mm | 13 mm | 0 mm | 20 mm | MIC [12]: 1000 µg/mL
6 | CO/N=C(\C(=O)N[C@@H]1C(=O)N2C(C(=O)O)=C(C[N+]3(C)CCCC3)CS[C@H]12)c1csc(N)n1.Cl.[Cl-] [Cefepime, cefepime dihydrochloride, reference compound] |  |  |  |  |  |  |  |  |  |  |  |  |  |  |  |  | Zone of bacterial growth inhibition, S.a ([1]; 100 μg of compound): 38 mm; Zone of bacterial growth inhibition, L.spp. (Lactobacillus spp.): 29 mm; Zone of bacterial growth inhibition, S.m ([2]; 100 μg of compound): 32 mm; Zone of bacterial growth inhibition, E.c ([3]; 100 μg of compound): 35 mm; Zone of bacterial growth inhibition, P.a ([4]; 100 μg of compound): 29 mm; Zone of bacterial growth inhibition, S.e ([5]; 100 μg of compound): 36 mm; Zone of bacterial growth inhibition, L.a ([6]; 100 μg of compound): 31 mm; Zone of bacterial growth inhibition, S.s ([7]; 100 μg of compound): 29 mm; Minimum inhibitory concentration (MIC), L. acidophilus ([9]; NA means inactive): 3.9 µg/mL; zones of inhibition, all tested strains (tested bacterial strains): 29–38 mm; Minimum inhibitory concentration (MIC), S. aureus ([10]; NA means inactive): 0.976 µg/mL; Minimum inhibitory concentration (MIC), S. mutans ([11]; NA means inactive): 0.122 µg/mL; Minimum inhibitory concentration (MIC), E. coli [12]: 0.015 µg/mL; Minimum inhibitory concentration (MIC), P. aeruginosa ([13]; NA means inactive): 0.488 µg/mL; Minimum inhibitory concentration (MIC), S. epidermidis ([14]; NA means inactive): 0.976 µg/mL; Minimum inhibitory concentration (MIC), S. sanguinis ([15]; NA means inactive): 0.122 µg/mL
7 | CSc1ccc(NC(=S)NNC(=O)c2ccncc2)cc1 [Compound 8, 4-(4-Methylthiophenyl)-1-(pyridin-4-yl)carbonylthiosemicarbazide] |  |  |  |  |  |  |  | 197 to 198 °C | 0 mm | 0 mm | 0 mm | 0 mm | 0 mm | 0 mm | 0 mm | 0 mm | 
